Where a SMILES comes first, the peptide text is derived from it.
target: HLA A*0301 (Homo sapiens, UniProt P04439); assay: HLA class I binding assay (cell-free competition, fluorescence polarization)

Row | SMILES | IC50 [µM]
1 | CC[C@H](C)[C@H](NC(=O)[C@@H](N)CCCNC(=N)N)C(=O)N[C@@H](CO)C(=O)NCC(=O)N[C@@H](Cc1c[nH]c2ccccc12)C(=O)N[C@@H](CCCCN)C(=O)NCC(=O)N[C@@H](CC(=O)O)C(=O)N[C@@H](CC(N)=O)C(=O)N[C@@H](CCCCN)C(=O)O (H-RISGWKGDNK-OH) | 0.548
2 | CC(C)C[C@H](NC(=O)[C@H](Cc1ccccc1)NC(=O)[C@@H](NC(=O)[C@H](CCCCN)NC(=O)[C@H](CCCCN)NC(=O)[C@H](CO)NC(=O)[C@@H](N)CCCNC(=N)N)[C@@H](C)O)C(=O)N[C@H](C(=O)N[C@@H](CCCCN)C(=O)O)C(C)C (H-RSKKTFLVK-OH) | 0.409
3 | CSCC[C@H](NC(=O)[C@H](CC(N)=O)NC(=O)[C@H](CCC(N)=O)NC(=O)[C@H](CC(N)=O)NC(=O)[C@H](C)NC(=O)[C@H](CCSC)NC(=O)[C@@H](N)[C@@H](C)O)C(=O)N[C@@H](CC(N)=O)C(=O)N[C@@H](Cc1ccc(O)cc1)C(=O)N[C@@H](CCCCN)C(=O)O (H-TMANQNMNYK-OH) | 0.209
4 | CSCC[C@H](NC(=O)[C@@H](NC(=O)[C@H](CC(=O)O)NC(=O)[C@H](Cc1c[nH]cn1)NC(=O)[C@@H]1CCCN1C(=O)[C@H](CO)NC(=O)[C@H](CC(C)C)NC(=O)CN)[C@@H](C)O)C(=O)N[C@@H](CCC(N)=O)C(=O)N[C@@H](CCCCN)C(=O)O (H-GLSPHDTMQK-OH) | 1.1
5 | CC(C)C[C@H](NC(=O)[C@H](CC(N)=O)NC(=O)[C@H](CC(C)C)NC(=O)[C@@H](N)CC(N)=O)C(=O)N[C@@H](CS)C(=O)NCC(=O)N[C@@H](CCCCN)C(=O)N[C@@H](Cc1ccc(O)cc1)C(=O)N[C@H](C(=O)N[C@@H](CCCCN)C(=O)O)[C@@H](C)O (H-NLNLCGKYTK-OH; N-terminus assumed) | > 1000
6 | CSCC[C@H](N)C(=O)N[C@@H](CC(=O)O)C(=O)N[C@@H](Cc1ccccc1)C(=O)N1CCC[C@H]1C(=O)N[C@@H](CCCCN)C(=O)N[C@@H](CC(C)C)C(=O)N[C@@H](CC(C)C)C(=O)N[C@@H](CC(N)=O)C(=O)N[C@@H](CCCCN)C(=O)O (H-MDFPKLLNK-OH) | 2.08
7 | CC(C)C[C@H](NC(=O)[C@H](CC(=O)O)NC(=O)[C@H](CC(C)C)NC(=O)[C@H](CO)NC(=O)[C@@H]1CCCN1C(=O)[C@H](CCCCN)NC(=O)[C@H](CC(N)=O)NC(=O)[C@H](CC(C)C)NC(=O)[C@H](CC(C)C)NC(=O)[C@@H](N)CCCCN)C(=O)O (H-KLLNKPSLDL-OH) | 2.36
8 | CSCC[C@H](NC(=O)[C@H](CC(N)=O)NC(=O)[C@H](Cc1ccc(O)cc1)NC(=O)[C@H](CC(N)=O)NC(=O)[C@H](CC(=O)O)NC(=O)[C@H](Cc1ccc(O)cc1)NC(=O)[C@H](CC(N)=O)NC(=O)[C@@H](N)CCCCN)C(=O)N[C@@H](CCCCN)C(=O)O (H-KNYDNYNMK-OH) | 2.51
9 | CC[C@H](C)[C@H](NC(=O)[C@H](CCSC)NC(=O)[C@H](CCCCN)NC(=O)[C@H](CCSC)NC(=O)[C@@H](NC(=O)[C@@H](N)CC(C)C)[C@@H](C)O)C(=O)N[C@@H](CC(N)=O)C(=O)N[C@@H](CC(N)=O)C(=O)N[C@@H](CCCCN)C(=O)O (H-LTMKMINNK-OH) | 0.472
10 | CC[C@H](C)[C@H](NC(=O)[C@H](CO)NC(=O)[C@H](Cc1ccccc1)NC(=O)[C@@H](NC(=O)[C@H](CO)NC(=O)CNC(=O)[C@H](CO)NC(=O)[C@H](CO)NC(=O)[C@@H](N)CCCNC(=N)N)[C@@H](C)O)C(=O)N[C@@H](CCCCN)C(=O)O (H-RSSGSTFSIK-OH) | 0.326
11 | CC(C)C[C@H](NC(=O)[C@H](Cc1ccccc1)NC(=O)[C@H](CO)NC(=O)[C@H](Cc1ccccc1)NC(=O)[C@H](CS)NC(=O)[C@@H](N)Cc1ccccc1)C(=O)N[C@@H](CCCCN)C(=O)N[C@@H](CO)C(=O)N[C@@H](CO)C(=O)N[C@@H](CCCCN)C(=O)O (H-FCFSFLKSSK-OH) | 9.21
12 | CC[C@H](C)[C@H](NC(=O)[C@@H]1CCCN1C(=O)[C@H](Cc1ccc(O)cc1)NC(=O)[C@H](CC(=O)O)NC(=O)[C@H](Cc1ccccc1)NC(=O)[C@@H](NC(=O)[C@@H](N)CCC(N)=O)C(C)C)C(=O)N[C@@H](CCC(=O)O)C(=O)N[C@@H](CCCCN)C(=O)O (H-QVFDYPIEK-OH) | 1.57
13 | CC[C@H](C)[C@H](N)C(=O)N[C@@H](CC(C)C)C(=O)N[C@H](C(=O)N[C@@H](CO)C(=O)N[C@@H](CCCNC(=N)N)C(=O)N[C@@H](CC(C)C)C(=O)N[C@H](C(=O)N[C@@H](CC(C)C)C(=O)N[C@@H](CCCCN)C(=O)O)[C@@H](C)O)[C@@H](C)CC (H-ILISRLTLK-OH) | 0.22
14 | CC[C@H](C)[C@H](NC(=O)[C@H](CO)NC(=O)[C@H](CCCNC(=N)N)NC(=O)[C@H](CC(N)=O)NC(=O)[C@H](CC(N)=O)NC(=O)[C@H](CC(C)C)NC(=O)[C@@H](N)CCCNC(=N)N)C(=O)N[C@@H](Cc1ccc(O)cc1)C(=O)N[C@@H](CCCCN)C(=O)O (H-RLNNRSIYK-OH) | 0.224
15 | CC[C@H](C)[C@H](NC(=O)[C@H](Cc1ccccc1)NC(=O)[C@H](CO)NC(=O)[C@H](CO)NC(=O)[C@@H](NC(=O)[C@@H](N)CCCCN)[C@@H](C)CC)C(=O)N[C@@H](CC(N)=O)C(=O)N[C@@H](CCC(N)=O)C(=O)N[C@@H](CCCNC(=N)N)C(=O)N[C@@H](CCCCN)C(=O)O (H-KISSFINQRK-OH) | 0.316
16 | CC(C)C[C@H](NC(=O)[C@H](C)N)C(=O)N[C@@H](CC(N)=O)C(=O)N[C@@H](CC(C)C)C(=O)N[C@@H](Cc1ccccc1)C(=O)N[C@@H](Cc1ccccc1)C(=O)N[C@@H](CCC(N)=O)C(=O)N[C@@H](CC(N)=O)C(=O)N[C@@H](CCCCN)C(=O)O (H-ALNLFFQNK-OH) | 1.14

target: HLA A*0201 (Homo sapiens, UniProt P04439, D140Y/D185E/D98H/E176V/E277Q/G131W/G231S/I119V/I121R/I166T/I218V/L300P/L318F/N151K/N90K/P208A/P217A/Q86G/Q94H/R138H/R169H/T345S); assay: as above

Row | SMILES | IC50 [µM]
17 | CC[C@H](C)[C@H](NC(=O)[C@@H](NC(=O)[C@@H](NC(=O)[C@H](CCCCN)NC(=O)[C@H](CC(N)=O)NC(=O)[C@H](CCCCN)NC(=O)[C@H](CC(N)=O)NC(=O)[C@@H](NC(=O)[C@@H](NC(=O)[C@@H](N)Cc1ccc(O)cc1)[C@@H](C)CC)[C@@H](C)O)C(C)C)[C@@H](C)O)C(=O)O (H-YITNKNKVTI-OH; N-terminus assumed) | > 1000
18 | CC[C@H](C)[C@H](NC(=O)[C@H](CC(N)=O)NC(=O)[C@H](CCC(N)=O)NC(=O)[C@H](CCC(N)=O)NC(=O)[C@H](Cc1ccc(O)cc1)NC(=O)[C@H](CCSC)NC(=O)[C@@H](N)CC(N)=O)C(=O)N1CCC[C@H]1C(=O)N[C@@H](CC(C)C)C(=O)O (H-NMYQQNIPL-OH) | 331
19 | CC[C@H](C)[C@H](NC(=O)[C@H](CC(=O)O)NC(=O)[C@H](CC(N)=O)NC(=O)[C@H](CC(N)=O)NC(=O)[C@H](CC(C)C)NC(=O)[C@@H](N)Cc1c[nH]c2ccccc12)C(=O)N[C@@H](Cc1ccc(O)cc1)C(=O)N[C@@H](CC(N)=O)C(=O)N[C@H](C(=O)O)C(C)C (H-WLNNDIYNV-OH) | 0.16
20 | CC[C@H](C)[C@H](NC(=O)[C@H](CO)NC(=O)[C@H](CCCCN)NC(=O)[C@H](CC(N)=O)NC(=O)[C@H](CCC(N)=O)NC(=O)[C@H](Cc1ccccc1)NC(=O)[C@H](Cc1ccccc1)NC(=O)[C@H](CC(C)C)NC(=O)[C@@H](N)CC(N)=O)C(=O)O (H-NLFFQNKSI-OH; N-terminus assumed) | > 1000
21 | CC[C@H](C)[C@H](N)C(=O)N[C@@H](CC(C)C)C(=O)N[C@@H](Cc1ccc(O)cc1)C(=O)N[C@@H](CCCCN)C(=O)N[C@@H](CC(N)=O)C(=O)N[C@H](C(=O)N[C@@H](CC(=O)O)C(=O)N[C@@H](CS)C(=O)N[C@H](C(=O)O)C(C)C)[C@@H](C)CC (H-ILYKNIDCV-OH) | 1.4
22 | CC[C@H](C)[C@H](NC(=O)[C@H](CC(=O)O)NC(=O)[C@@H](NC(=O)[C@H](CO)NC(=O)[C@@H](NC(=O)[C@@H](N)CC(C)C)[C@@H](C)CC)[C@@H](C)O)C(=O)N[C@H](C(=O)N[C@@H](Cc1ccccc1)C(=O)N[C@@H](CC(C)C)C(=O)O)[C@@H](C)CC (H-LISTDIIFL-OH) | 0.614
23 | CC(C)C[C@H](NC(=O)[C@H](CC(=O)O)NC(=O)[C@H](CC(C)C)NC(=O)[C@H](CO)NC(=O)[C@@H]1CCCN1C(=O)[C@H](CCCCN)NC(=O)[C@H](CC(N)=O)NC(=O)[C@H](CC(C)C)NC(=O)[C@H](CC(C)C)NC(=O)[C@@H](N)CCCCN)C(=O)O (H-KLLNKPSLDL-OH) | 4.26
24 | CC(C)C[C@H](NC(=O)[C@H](CC(C)C)NC(=O)[C@H](CC(N)=O)NC(=O)[C@H](CC(C)C)NC(=O)[C@H](CC(C)C)NC(=O)[C@@H](N)Cc1ccccc1)C(=O)N[C@@H](CC(N)=O)C(=O)N[C@@H](CCC(=O)O)C(=O)N[C@@H](Cc1c[nH]cn1)C(=O)N[C@H](C(=O)O)C(C)C (H-FLLNLLNEHV-OH) | 1.68
25 | CC[C@H](C)[C@H](NC(=O)CNC(=O)[C@H](Cc1ccc(O)cc1)NC(=O)[C@H](Cc1c[nH]cn1)NC(=O)[C@@H](NC(=O)[C@@H](N)C(C)C)[C@@H](C)CC)C(=O)N[C@@H](CC(N)=O)C(=O)N1CCC[C@H]1C(=O)N[C@H](C(=O)O)C(C)C (H-VIHYGINPV-OH) | 1.7
26 | CC[C@H](C)[C@H](NC(=O)[C@H](CC(N)=O)NC(=O)[C@@H](NC(=O)[C@H](CCSC)NC(=O)[C@@H](N)CO)[C@@H](C)O)C(=O)N1CCC[C@H]1C(=O)N[C@@H](CCSC)C(=O)N[C@@H](CC(N)=O)C(=O)N[C@H](C(=O)O)C(C)C (H-SMTNIPMNV-OH) | 0.244
27 | CC(C)C[C@H](NC(=O)[C@@H](N)CC(N)=O)C(=O)N[C@@H](Cc1ccccc1)C(=O)N[C@@H](CCC(=O)O)C(=O)N[C@@H](Cc1c[nH]c2ccccc12)C(=O)N[C@@H](CO)C(=O)N[C@@H](CCCCN)C(=O)N[C@H](C(=O)N[C@H](C(=O)O)C(C)C)[C@@H](C)O (H-NLFEWSKTV-OH) | 1.62
28 | CC(C)C[C@H](NC(=O)[C@H](CC(N)=O)NC(=O)[C@H](C)NC(=O)[C@H](C)NC(=O)[C@H](CCCCN)NC(=O)[C@H](CCC(N)=O)NC(=O)[C@H](Cc1ccccc1)NC(=O)[C@H](CC(C)C)NC(=O)[C@@H](N)CC(C)C)C(=O)O (H-LLFQKAANL-OH) | 1.88
29 | CC[C@H](C)[C@H](NC(=O)CN)C(=O)N[C@@H](C)C(=O)N[C@@H](CC(N)=O)C(=O)N[C@@H](CC(=O)O)C(=O)N[C@@H](CC(C)C)C(=O)N[C@@H](CO)C(=O)N[C@H](C(=O)N[C@@H](CC(C)C)C(=O)O)[C@@H](C)O (H-GIANDLSTL-OH) | 5.73
30 | CC[C@H](C)[C@H](NC(=O)[C@@H](N)CO)C(=O)N[C@@H](CO)C(=O)N[C@@H](CC(=O)O)C(=O)N[C@@H](Cc1ccc(O)cc1)C(=O)N[C@H](C(=O)N[C@@H](CCCCN)C(=O)N[C@@H](CO)C(=O)N[C@@H](CC(C)C)C(=O)O)[C@@H](C)O (H-SISDYTKSL-OH) | 352

— paper PMC8138313, “Identification, Selection and Immune Assessment of Liver Stage CD8 T Cell Epitopes From Plasmodium falciparum” (Frontiers in Immunology, 2021)
